Results reported in ChEMBL document CHEMBL5291721, “A preclinical secondary pharmacology resource illuminates target-adverse drug reaction associations of marketed drugs” (Nat Commun, 2023).

What was measured:
Acetylcholinesterase = Acetylcholinesterase (Homo sapiens, UniProt P22303); type: functional
Vasopressin V1a receptor = Vasopressin V1a receptor (Homo sapiens, UniProt P37288)
Prothrombin = Prothrombin (Homo sapiens, UniProt P00734); type: functional
Histamine H1 receptor = Histamine H1 receptor (Homo sapiens, UniProt P35367)
Histamine H1 receptor, sequence (P35367 whole entry): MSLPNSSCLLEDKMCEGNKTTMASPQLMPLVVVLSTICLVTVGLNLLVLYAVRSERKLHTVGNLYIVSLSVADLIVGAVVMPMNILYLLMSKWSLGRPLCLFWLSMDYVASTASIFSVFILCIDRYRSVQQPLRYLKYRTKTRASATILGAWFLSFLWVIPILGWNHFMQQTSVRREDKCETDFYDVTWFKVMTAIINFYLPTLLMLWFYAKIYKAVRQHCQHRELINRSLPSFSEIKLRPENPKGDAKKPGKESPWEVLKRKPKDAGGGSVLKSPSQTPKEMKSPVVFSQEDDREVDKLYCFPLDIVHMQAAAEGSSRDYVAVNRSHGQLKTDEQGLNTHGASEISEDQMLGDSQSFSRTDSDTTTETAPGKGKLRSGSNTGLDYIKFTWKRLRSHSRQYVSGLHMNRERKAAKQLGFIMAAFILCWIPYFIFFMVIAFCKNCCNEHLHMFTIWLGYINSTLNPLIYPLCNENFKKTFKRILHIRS

[1] = target: Vascular endothelial growth factor receptor 2 (Homo sapiens, UniProt P35968); type: functional
Vascular endothelial growth factor receptor 2, sequence (P35968 whole entry): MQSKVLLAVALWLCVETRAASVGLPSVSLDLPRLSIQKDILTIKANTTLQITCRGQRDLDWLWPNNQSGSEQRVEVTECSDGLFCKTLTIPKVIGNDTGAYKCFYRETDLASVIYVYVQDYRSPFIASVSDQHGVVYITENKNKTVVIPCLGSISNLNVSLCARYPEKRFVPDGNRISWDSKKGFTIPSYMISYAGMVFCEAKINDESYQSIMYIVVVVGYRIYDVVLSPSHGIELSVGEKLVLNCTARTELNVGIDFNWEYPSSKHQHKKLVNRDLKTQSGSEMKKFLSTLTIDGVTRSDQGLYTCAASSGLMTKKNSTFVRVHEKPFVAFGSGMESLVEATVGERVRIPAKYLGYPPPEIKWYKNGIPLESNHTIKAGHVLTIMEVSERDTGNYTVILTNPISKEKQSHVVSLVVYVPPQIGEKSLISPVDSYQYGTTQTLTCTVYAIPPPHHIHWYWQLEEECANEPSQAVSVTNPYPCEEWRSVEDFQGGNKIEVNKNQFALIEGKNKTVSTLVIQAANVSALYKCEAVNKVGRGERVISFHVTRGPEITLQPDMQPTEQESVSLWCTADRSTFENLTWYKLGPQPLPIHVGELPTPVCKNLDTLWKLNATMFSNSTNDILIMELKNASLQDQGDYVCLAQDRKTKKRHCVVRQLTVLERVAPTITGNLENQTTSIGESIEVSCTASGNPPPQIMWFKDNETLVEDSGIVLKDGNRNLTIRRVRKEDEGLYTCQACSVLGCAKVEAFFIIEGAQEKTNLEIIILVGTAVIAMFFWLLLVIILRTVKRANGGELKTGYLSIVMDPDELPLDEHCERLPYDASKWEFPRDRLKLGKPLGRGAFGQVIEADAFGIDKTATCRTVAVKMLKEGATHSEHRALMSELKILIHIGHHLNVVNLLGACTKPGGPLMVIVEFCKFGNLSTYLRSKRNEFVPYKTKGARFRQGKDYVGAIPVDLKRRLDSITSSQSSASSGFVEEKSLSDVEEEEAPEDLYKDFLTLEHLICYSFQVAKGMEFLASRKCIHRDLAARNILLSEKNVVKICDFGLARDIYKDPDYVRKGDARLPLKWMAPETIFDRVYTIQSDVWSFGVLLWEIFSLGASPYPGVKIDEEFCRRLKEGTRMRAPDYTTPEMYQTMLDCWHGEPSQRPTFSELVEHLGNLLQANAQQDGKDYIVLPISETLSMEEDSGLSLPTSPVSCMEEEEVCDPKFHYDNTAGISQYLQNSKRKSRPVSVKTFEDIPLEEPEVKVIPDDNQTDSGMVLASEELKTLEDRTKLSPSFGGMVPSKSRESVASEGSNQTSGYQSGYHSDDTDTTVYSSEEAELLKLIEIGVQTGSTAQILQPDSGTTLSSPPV

Mu-type opioid receptor = Mu-type opioid receptor (Homo sapiens, UniProt P35372)
Mu-type opioid receptor, sequence (P35372 whole entry): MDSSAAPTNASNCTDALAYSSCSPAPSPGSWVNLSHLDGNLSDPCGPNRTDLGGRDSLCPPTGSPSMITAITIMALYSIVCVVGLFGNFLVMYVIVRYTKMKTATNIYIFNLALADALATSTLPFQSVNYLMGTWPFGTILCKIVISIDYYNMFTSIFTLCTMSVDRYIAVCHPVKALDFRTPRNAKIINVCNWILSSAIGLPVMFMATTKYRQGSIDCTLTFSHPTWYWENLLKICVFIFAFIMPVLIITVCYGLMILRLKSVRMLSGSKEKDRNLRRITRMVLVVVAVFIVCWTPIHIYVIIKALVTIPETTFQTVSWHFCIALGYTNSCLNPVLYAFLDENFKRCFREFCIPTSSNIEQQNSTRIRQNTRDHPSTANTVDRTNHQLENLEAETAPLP

Progesterone receptor [2] = target: T1, Progesterone receptor (Homo sapiens, UniProt P06401); type: functional
T1 sequence (P06401 whole entry): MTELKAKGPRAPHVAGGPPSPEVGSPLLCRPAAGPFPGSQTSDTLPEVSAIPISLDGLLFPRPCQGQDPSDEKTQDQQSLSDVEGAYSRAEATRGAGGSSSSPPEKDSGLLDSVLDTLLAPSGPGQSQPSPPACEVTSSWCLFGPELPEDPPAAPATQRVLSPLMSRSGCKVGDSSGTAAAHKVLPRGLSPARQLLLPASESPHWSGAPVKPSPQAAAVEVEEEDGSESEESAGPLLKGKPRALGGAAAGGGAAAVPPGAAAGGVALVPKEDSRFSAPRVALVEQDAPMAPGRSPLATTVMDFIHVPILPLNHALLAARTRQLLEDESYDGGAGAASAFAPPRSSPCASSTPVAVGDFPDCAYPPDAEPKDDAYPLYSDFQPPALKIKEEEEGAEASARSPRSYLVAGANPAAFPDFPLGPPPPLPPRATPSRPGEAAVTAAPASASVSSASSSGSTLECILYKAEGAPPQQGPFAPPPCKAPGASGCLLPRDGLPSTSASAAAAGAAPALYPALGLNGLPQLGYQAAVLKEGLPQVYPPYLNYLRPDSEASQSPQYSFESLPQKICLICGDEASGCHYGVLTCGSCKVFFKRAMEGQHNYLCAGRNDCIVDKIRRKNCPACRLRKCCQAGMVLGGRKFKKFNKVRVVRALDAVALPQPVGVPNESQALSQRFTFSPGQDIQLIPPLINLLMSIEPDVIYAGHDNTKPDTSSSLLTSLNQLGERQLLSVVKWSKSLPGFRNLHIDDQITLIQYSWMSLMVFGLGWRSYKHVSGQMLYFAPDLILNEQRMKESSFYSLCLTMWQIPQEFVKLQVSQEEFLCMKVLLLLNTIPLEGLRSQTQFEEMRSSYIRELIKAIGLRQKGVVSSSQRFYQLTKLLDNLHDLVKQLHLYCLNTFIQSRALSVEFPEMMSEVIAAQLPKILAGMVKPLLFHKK

Progesterone receptor [3] = target: T1, Progesterone receptor
[4] = target: T2, Prostaglandin G/H synthase 1 (Homo sapiens, UniProt P23219); type: functional
T2 sequence (P23219 whole entry): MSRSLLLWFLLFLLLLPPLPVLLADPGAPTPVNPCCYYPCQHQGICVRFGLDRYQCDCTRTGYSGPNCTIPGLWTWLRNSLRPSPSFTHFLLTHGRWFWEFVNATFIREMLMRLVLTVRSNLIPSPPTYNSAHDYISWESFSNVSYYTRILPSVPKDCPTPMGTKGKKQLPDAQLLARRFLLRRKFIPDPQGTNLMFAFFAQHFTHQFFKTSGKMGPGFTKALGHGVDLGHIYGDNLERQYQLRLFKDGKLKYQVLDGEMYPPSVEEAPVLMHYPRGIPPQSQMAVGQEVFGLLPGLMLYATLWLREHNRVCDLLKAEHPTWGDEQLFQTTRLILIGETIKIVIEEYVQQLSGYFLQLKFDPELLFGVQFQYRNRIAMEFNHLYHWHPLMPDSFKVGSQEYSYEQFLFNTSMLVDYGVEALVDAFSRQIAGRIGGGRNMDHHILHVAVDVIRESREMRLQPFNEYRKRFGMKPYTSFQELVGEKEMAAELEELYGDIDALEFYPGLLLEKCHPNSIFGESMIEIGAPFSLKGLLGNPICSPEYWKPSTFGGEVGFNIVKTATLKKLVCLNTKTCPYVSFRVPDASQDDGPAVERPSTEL

[5] = target: T2, Prostaglandin G/H synthase 1; type: functional; remark: listed apart in the source
[6] = target: Sodium-dependent serotonin transporter (Homo sapiens, UniProt P31645)
Sodium-dependent serotonin transporter, sequence (P31645 whole entry): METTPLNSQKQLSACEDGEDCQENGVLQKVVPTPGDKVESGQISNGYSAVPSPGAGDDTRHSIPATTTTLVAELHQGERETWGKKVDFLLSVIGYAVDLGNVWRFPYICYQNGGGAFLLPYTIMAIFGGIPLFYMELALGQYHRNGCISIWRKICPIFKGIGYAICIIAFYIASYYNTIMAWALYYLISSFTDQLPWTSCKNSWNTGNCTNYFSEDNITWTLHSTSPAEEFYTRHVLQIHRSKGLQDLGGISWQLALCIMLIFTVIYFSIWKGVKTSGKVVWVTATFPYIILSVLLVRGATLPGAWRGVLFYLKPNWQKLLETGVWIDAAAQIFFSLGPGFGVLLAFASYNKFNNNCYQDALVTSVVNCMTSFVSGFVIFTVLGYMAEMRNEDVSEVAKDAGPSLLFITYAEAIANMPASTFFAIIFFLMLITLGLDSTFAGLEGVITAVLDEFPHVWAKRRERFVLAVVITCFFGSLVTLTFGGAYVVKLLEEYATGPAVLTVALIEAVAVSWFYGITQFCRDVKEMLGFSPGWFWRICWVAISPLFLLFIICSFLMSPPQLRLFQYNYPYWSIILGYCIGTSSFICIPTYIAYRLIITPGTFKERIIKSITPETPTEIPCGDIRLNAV

[7] = target: T3, Alpha-2B adrenergic receptor (Homo sapiens, UniProt P18089)
T3 sequence (P18089 whole entry): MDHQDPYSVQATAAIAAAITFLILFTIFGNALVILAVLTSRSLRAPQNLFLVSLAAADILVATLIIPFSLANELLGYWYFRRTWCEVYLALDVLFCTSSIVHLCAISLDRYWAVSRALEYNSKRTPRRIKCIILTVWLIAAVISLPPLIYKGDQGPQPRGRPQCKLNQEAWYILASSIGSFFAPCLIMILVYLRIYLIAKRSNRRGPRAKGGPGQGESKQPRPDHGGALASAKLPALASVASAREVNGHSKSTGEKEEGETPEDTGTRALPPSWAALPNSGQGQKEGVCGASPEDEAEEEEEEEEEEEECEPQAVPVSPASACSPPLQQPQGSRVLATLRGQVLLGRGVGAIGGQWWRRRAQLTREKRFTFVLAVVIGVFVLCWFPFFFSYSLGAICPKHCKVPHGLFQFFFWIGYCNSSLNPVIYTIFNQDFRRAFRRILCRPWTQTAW

B2 bradykinin receptor = target: T4, B2 bradykinin receptor (Homo sapiens, UniProt P30411)
T4 sequence (P30411 whole entry): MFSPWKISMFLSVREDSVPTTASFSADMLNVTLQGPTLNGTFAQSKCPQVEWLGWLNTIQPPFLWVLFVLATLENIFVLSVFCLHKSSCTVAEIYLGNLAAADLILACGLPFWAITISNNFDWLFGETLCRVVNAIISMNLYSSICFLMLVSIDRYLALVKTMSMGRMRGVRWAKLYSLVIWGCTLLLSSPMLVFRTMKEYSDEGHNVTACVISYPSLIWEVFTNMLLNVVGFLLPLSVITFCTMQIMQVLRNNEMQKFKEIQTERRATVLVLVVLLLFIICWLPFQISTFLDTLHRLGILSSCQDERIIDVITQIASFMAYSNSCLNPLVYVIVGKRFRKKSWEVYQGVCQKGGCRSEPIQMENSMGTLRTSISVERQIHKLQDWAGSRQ

[8] = target: Muscarinic acetylcholine receptor M3 (Homo sapiens, UniProt P20309)
D(1A) dopamine receptor = D(1A) dopamine receptor (Homo sapiens, UniProt P21728)
D(1A) dopamine receptor, sequence (P21728 whole entry): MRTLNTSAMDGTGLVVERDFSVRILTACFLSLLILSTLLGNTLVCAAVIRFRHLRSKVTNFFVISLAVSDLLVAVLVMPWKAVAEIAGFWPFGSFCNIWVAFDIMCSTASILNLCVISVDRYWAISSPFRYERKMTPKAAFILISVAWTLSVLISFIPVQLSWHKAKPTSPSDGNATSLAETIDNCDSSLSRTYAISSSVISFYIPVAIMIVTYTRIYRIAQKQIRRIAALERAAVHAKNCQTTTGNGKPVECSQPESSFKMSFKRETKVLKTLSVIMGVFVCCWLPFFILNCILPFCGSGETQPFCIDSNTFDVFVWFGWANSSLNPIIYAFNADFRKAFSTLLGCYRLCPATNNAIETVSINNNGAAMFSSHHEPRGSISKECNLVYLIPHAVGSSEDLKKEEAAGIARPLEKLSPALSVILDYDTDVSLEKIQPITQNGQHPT

[9] = target: T5, 5-hydroxytryptamine receptor 1A (Homo sapiens, UniProt P08908); type: functional, cell-based
T5 sequence (P08908 whole entry): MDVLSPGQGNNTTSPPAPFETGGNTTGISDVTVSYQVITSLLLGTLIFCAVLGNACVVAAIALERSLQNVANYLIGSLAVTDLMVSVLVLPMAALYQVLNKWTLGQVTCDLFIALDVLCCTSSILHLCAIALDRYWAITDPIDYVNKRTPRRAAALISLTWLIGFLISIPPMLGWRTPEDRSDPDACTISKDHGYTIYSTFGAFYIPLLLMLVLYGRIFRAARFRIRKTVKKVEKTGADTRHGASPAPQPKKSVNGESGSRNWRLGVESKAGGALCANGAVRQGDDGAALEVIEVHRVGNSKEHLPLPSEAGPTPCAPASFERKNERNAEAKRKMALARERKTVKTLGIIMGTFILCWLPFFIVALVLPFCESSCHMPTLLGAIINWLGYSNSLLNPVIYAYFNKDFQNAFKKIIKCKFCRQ

[10] = target: T5, 5-hydroxytryptamine receptor 1A
Note: assay procedure not described here.

Vasopressin V1a receptor, sequence (P37288 whole entry): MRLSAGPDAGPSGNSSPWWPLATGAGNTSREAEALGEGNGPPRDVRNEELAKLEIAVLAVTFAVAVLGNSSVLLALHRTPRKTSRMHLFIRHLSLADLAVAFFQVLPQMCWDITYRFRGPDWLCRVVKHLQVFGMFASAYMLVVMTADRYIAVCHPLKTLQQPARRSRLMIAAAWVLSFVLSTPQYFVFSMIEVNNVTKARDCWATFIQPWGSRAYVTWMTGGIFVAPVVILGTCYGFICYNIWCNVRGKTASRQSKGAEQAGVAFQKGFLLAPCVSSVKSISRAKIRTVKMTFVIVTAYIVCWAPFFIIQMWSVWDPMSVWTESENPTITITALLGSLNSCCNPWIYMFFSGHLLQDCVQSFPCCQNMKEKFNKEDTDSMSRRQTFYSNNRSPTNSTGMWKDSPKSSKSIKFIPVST
Acetylcholinesterase, sequence (P22303 whole entry): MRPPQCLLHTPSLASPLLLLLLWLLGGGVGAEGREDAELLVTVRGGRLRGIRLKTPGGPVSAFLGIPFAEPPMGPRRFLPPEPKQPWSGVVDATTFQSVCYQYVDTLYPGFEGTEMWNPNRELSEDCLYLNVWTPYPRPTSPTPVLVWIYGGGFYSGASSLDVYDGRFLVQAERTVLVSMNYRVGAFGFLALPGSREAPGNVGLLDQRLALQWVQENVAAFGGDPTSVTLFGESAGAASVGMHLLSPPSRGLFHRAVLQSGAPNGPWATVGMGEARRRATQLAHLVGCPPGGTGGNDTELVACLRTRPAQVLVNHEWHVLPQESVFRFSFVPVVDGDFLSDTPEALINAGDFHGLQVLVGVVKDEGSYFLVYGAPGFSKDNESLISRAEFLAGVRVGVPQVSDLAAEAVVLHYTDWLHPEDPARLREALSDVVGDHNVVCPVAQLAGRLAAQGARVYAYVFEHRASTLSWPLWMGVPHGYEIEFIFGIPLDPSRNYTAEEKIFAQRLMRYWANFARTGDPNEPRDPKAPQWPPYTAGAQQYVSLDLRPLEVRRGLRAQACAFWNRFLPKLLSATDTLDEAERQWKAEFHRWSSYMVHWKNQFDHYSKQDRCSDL

SMILES	AC50 (Acetylcholinesterase) [µM]	AC50 (Vasopressin V1a receptor) [µM]	AC50 (Prothrombin) [µM]	AC50 (Histamine H1 receptor) [µM]	AC50 [1] [µM]	AC50 (Mu-type opioid receptor) [µM]	AC50 (Progesterone receptor [2]) [µM]	AC50 (Progesterone receptor [3]) [µM]	AC50 [4] [µM]	AC50 [5] [µM]	AC50 [6] [µM]	AC50 [7] [µM]	AC50 (B2 bradykinin receptor) [µM]	AC50 [8] [µM]	AC50 (D(1A) dopamine receptor) [µM]	AC50 [9] [µM]	AC50 [10] [µM]
O=C1[C@@H]2[C@H]3CC[C@H](C3)[C@@H]2C(=O)N1C[C@@H]1CCCC[C@H]1CN1CCN(c2nsc3ccccc23)CC1 [LURASIDONE]	> 30	> 30	> 30	8.7	> 30	> 10	> 30	> 30	> 30	> 30	> 30	–	–	–	–	–	–
CN(C)CCN(Cc1ccccc1)c1ccccn1 [TRIPELENNAMINE]	> 30	> 10	> 30	0.08	> 30	> 30	–	–	> 30	> 30	0.209	11	> 10	> 30	19.4	> 10	> 30
Cc1c(C)c2c(c(C)c1O)CCC(C)(COc1ccc(CC3SC(=O)NC3=O)cc1)O2 (centres undefined) [TROGLITAZONE]	> 30	> 30	> 30	–	> 30	14	16	3.55	5.93	> 30	–	–	> 30	–	8.59	6.9	25.7
